SMILES strings stand for the structures.

The target of one assay is T1, EphA2 (UniProt Ref: P29317) (Homo sapiens, UniProt P29317).
T1 construct: purchased Reaction Biology
T1 sequence (P29317 24-976): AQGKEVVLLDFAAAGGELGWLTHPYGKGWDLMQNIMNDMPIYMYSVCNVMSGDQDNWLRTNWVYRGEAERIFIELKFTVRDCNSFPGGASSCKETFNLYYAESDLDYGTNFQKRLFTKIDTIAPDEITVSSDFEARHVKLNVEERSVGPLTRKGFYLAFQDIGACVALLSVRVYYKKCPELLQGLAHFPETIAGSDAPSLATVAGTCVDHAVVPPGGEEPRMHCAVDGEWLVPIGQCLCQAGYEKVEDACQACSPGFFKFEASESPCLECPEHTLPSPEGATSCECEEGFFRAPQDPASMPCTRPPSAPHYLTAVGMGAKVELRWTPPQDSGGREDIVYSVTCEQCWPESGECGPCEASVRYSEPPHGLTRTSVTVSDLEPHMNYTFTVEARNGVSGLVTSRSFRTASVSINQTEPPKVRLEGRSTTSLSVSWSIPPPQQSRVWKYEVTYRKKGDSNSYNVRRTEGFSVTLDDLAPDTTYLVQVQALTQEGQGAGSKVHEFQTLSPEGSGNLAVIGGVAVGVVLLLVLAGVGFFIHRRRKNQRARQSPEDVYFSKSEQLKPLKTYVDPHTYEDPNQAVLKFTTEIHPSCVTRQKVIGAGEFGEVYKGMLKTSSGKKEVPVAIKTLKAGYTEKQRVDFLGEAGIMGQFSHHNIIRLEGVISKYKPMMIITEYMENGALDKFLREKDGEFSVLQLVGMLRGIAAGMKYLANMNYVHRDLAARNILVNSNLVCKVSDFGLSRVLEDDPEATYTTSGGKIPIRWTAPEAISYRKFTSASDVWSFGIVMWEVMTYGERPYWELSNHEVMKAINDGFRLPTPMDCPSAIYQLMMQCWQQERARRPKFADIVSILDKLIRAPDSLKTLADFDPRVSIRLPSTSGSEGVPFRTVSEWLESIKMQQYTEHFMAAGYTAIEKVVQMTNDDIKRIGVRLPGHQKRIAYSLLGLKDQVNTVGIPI
The assay is described as follows: EphA2 assay (Reaction Biology HotSpot radioactive kinase assay). Type of assay: biochemical. The note with it: ATP 10 μM; read-out: EphA2 potency IC50. The protocol: Inhibition of EphA2 (UniProt Ref: P29317) by a test compound is determined by a commercially available Reaction Biology proprietary nanoliter radioactive HotSpot^SM assay (Reaction Biology, One great valley parkway, Suite 2, Malvern Pa., 19355, USA). The principle of the assay consists of the measurement of incorporated ^33P into poly[Glu:Tyr] (4:1) (0.2 mg/mL) when the substrate is phosphorylated by the enzyme using [^33P]-γ-ATP and ATP (10 μM).
To determine the IC50, a serial dilution of compound is tested starting from 10, or 3 μM (highest dilution) with a 1/3 dilution.
For the molecule `Cc1ccc(NC(=O)c2cccc(C(F)(F)F)c2)cc1-c1ccc2c(CO)n[nH]c2n1` [Compound 1, N-(3-(3-(hydroxymethyl)-1H-pyrazolo[3,4-b]pyridin-6-yl)-4-methylphenyl)-3-(trifluoromethyl)benzamide], the IC50 lay within 0.01 to 25 nM.

As to `CCc1n[nH]c2nc(-c3cc(NC(=O)c4cc(C)cc(OC)c4)ccc3C)ccc12` [Compound 19, N-[3-(3-Ethyl-1H-pyrazolo[3,4-b]pyridin-6-yl)-4-methyl-phenyl]-3-methoxy-5-methyl-benzamide], the IC50 fell in the range of 0.01 to 25 nM.

With `CCc1n[nH]c2nc(-c3cc(NC(=O)c4cc(OC)cc(OC)c4)ccc3Cl)ccc12` [Compound 22, N-[4-Chloro-3-(3-ethyl-1H-pyrazolo[3,4-b]pyridin-6-yl)-phenyl]-3,5-dimethoxy-benzamide], the IC50 is 25 to 50 nM.

Turning to `CCc1n[nH]c2nc(-c3cc(NC(=O)c4cc(C)cc(OCCO)c4)ccc3C)ccc12` [Compound 23, N-[3-(3-Ethyl-1H-pyrazolo[3,4-b]pyridin-6-yl)-4-methyl-phenyl]-3-(2-hydroxy-ethoxy)-5-methyl-benzamide], the concentration for half-maximal inhibition (IC50) was 0.01 to 25 nM.

In the case of `CCc1n[nH]c2nc(-c3cc(NC(=O)c4cc(C)cc(OCCN(C)C)c4)ccc3C)ccc12` [Compound 25, 3-(2-Dimethylamino-ethoxy)-N-[3-(3-ethyl-1H-pyrazolo[3,4-b]pyridin-6-yl)-4-methyl-phenyl]-5-methyl-benzamide], the IC50 lay within 0.01 to 25 nM.

For `CCc1n[nH]c2nc(-c3cc(NC(=O)c4cc(N(C)C)cc(C(F)(F)F)c4)ccc3C)ccc12` [Compound 26, 3-Dimethylamino-N-[3-(3-ethyl-1H-pyrazolo[3,4-b]pyridin-6-yl)-4-methyl-phenyl]-5-trifluoromethyl-benzamide], the concentration for half-maximal inhibition (IC50) was 50 to 100 nM.

Turning to `CCc1ccc(NC(=O)c2cc(OC)cc(OC)c2)cc1-c1ccc2c(CC)n[nH]c2n1` [Compound 32, N-[4-Ethyl-3-(3-ethyl-1H-pyrazolo[3,4-b]pyridin-6-yl)-phenyl]-3,5-dimethoxy-benzamide], the IC50 is 50 to 100 nM.

Turning to `CCc1n[nH]c2nc(-c3cc(NC(=O)c4cc(OC)cc(C(F)(F)F)c4)ccc3C)ccc12` [Compound 33, N-[3-(3-Ethyl-1H-pyrazolo[3,4-b]pyridin-6-yl)-4-methyl-phenyl]-3-methoxy-5-trifluoromethyl-benzamide], the IC50 was in the range of 0.01 to 25 nM.

Take `CCc1n[nH]c2nc(-c3cc(NC(=O)c4cc(OC)cc(OCCN)c4)ccc3C)ccc12` [Compound 39, 3-(2-amino-ethoxy)-N-[3-(3-ethyl-1H-pyrazolo[3,4-b]pyrin-6-yl)-4-methylphenyl]-5-methoxybenzamide]: the IC50 lay within 0.01 to 25 nM.

Regarding `CCc1n[nH]c2nc(-c3cc(NC(=O)c4cc(OC)cc(OCCN5CCOCC5)c4)ccc3C)ccc12` [Compound 41, N-[3-(3-Ethyl-1H-pyrazolo[3,4-b]pyridin-6-yl)-4-methyl-phenyl]-3-methoxy-5-(2-morpholin-4-yl-ethoxy)-benzamide], the IC50 lay in the range of 0.01 to 25 nM.

For the molecule `CCc1n[nH]c2nc(-c3cc(NC(=O)c4cc(OCCN5CCOCC5)cc(C5CC5)c4)cnc3C)ccc12` [Compound 43, 3-Cyclopropyl-N-[5-(3-ethyl-1H-pyrazolo[3,4-b]pyridin-6-yl)-6-methyl-pyridin-3-yl]-5-(2-morpholin-4-yl-ethoxy)-benzamide], the IC50 is 0.01 to 25 nM.

Take `CCc1n[nH]c2nc(-c3cc(NC(=O)c4cc(OC)cc(OCCN)c4)cnc3C)ccc12` [Compound 44, 3-(2-Amino-ethoxy)-N-[5-(3-ethyl-1H-pyrazolo[3,4-b]pyridin-6-yl)-6-methyl-pyridin-3-yl]-5-methoxy-benzamide]: the half-inhibitory concentration (IC50) lay in the range of 50 to 100 nM.

As to `COc1cc(OC)cc(C(=O)Nc2ccc(C)c(-c3ccc4c([C@@H](C)O)n[nH]c4n3)c2)c1` [Compound 48, N-{3-[3-((R)-1-Hydroxy-ethyl)-1H-pyrazolo[3,4-b]pyridin-6-yl]-4-methyl-phenyl}-3,5-dimethoxy-benzamide], the IC50 was in the range of 25 to 50 nM.

As for `CCc1n[nH]c2nc(-c3cc(NC(=O)c4cc(OC)cc(C5CC5)c4)ccc3C)ccc12` [Compound 51, 3-Cyclopropyl-N-[3-(3-ethyl-1H-pyrazolo[3,4-b]pyridin-6-yl)-4-methyl-phenyl]-5-methoxy-benzamide], the IC50 was 0.01 to 25 nM.

As for `Cc1cc(C)cc(C(=O)Nc2cnc(C)c(-c3ccc4c(C)n[nH]c4n3)c2)c1` [Compound 52, 3,5-Dimethyl-N-[6-methyl-5-(3-methyl-1H-pyrazolo[3,4-b]pyridin-6-yl)-pyridin-3-yl]-benzamide], the IC50 lay within 0.01 to 25 nM.

Take `Cc1ncc(NC(=O)c2cccc(C(F)(F)F)c2)cc1-c1ccc2c(C)n[nH]c2n1` [Compound 53, N-[6-Methyl-5-(3-methyl-1H-pyrazolo[3,4-b]pyridin-6-yl)-pyridin-3-yl]-3-trifluoromethyl-benzamide]: the IC50 was in the range of 0.01 to 25 nM.

On to `Cc1cc(C)cc(C(=O)Nc2ccc(C)c(-c3ccc4c(C(C)O)n[nH]c4n3)c2)c1` (stereo not drawn) [Compound 54, N-{3-[3-(1-Hydroxy-ethyl)-1H-pyrazolo[3,4-b]pyridin-6-yl]-4-methyl-phenyl}-3,5-dimethyl-benzamide], for which the IC50 was 0.01 to 25 nM.

The target in a further assay is T2, Recombinant EphA7 (Homo sapiens, UniProt Q15375).
T2 construct: purchased Carna 08-126
T2 sequence (Q15375 579-998 limits assumed): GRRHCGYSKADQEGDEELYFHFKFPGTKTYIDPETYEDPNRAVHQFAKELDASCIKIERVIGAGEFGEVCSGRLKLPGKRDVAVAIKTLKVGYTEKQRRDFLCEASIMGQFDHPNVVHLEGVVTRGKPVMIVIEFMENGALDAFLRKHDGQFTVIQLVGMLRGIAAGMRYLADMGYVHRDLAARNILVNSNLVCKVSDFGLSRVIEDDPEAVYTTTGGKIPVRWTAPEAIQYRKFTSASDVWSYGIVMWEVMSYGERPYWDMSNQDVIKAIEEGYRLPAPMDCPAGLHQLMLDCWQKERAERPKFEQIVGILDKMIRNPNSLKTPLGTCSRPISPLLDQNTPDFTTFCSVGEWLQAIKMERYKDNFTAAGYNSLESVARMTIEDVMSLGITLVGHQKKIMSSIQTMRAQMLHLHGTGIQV
The experiment in a line: EphA7 assay (33P incorporation into poly GT, filter plate). The class given is biochemical. The note with it: EphA7 potency; 0.15 μM ATP; read-out: IC50. How it is done:
The principle of the assay consists of the measurement of incorporated ^33P into the substrate poly GT when phosphorylated by the enzyme EphA7 using [^33P]-γ-ATP and ATP. Unincorporated ^33P is removed by loading the samples on a filter plate (using a harvester, Perkin Elmer) and 6 subsequent washing steps. ^33P incorporated in polyGT is measured on a Topcount after addition of microscint to the filter plates (Perkin Elmer).
Recombinant EphA7 (Carna Cat#08-126, 2 ng per well) was incubated with 0.1 mg/mL Poly(Glu,Tyr)sodium salt (4:1), MW 20 000-50 000 (Sigma catalog number P0275) in kinase reaction buffer (10 mM MOPS pH 7.2, 5 mM DTT, 0.01% Triton-X100, 5 mM MnCl2, 0.5 mM Na3VO4, 5 mM beta-glycerolphosphate), 0.15 μM non-radioactive ATP, 0.125 μCi/25 μl ^33P-gamma-ATP (Perkin Elmer, catalog number NEG602K) final concentrations with or without 5 μL containing test compound or vehicle (DMSO, 1% final concentration), in a total volume of 25 μL, in a polypropylene 96-well plate (Greiner, V-bottom). After 90 min at 30° C., reactions were stopped by adding of 25 μL/well of 150 mM phosphoric acid. All of the terminated kinase reaction was transferred to prewashed (75 mM phosphoric acid) 96 well filter plates (Perkin Elmer catalog number 6005177) using a cell harvester (Perkin Elmer). Plates were washed 6 times with 300 μL per well of a 75 mM phosphoric acid solution and the bottom of the plates was sealed. 40 μL/well of Microscint-20 was added, the top of the plates was sealed and readout was performed using the Topcount (Perkin Elmer). The ability of a test compound to inhibit the kinase activity was determined using counts per minutes (cpm) measured by the Topcount as:
Cpm (cpd): cpm determined for sample with test compound present
Cpm (control): cpm determined for sample with positive control inhibitor (10 μM staurosporine)
Cpm (vehicle): cpm determined in the presence of vehicle (1% DMSO)
Dose dilution series were prepared for the compounds enabling the testing of dose-response effects in the EphA7 assay and the calculation of the IC50 for each compound. Each compound was routinely tested at concentration of 20 μM followed by a 1/5 serial dilution, 10 points in a final concentration of 1% DMSO. When potency of compound series increased, more dilutions may be prepared and/or the top concentration may be lowered (e.g. 5 μM, 1 μM).
With `CCc1n[nH]c2nc(-c3cc(NC(=O)c4cc(OCCN5CCOCC5)cc(C5CC5)c4)cnc3C)ccc12` [Compound 43, 3-Cyclopropyl-N-[5-(3-ethyl-1H-pyrazolo[3,4-b]pyridin-6-yl)-6-methyl-pyridin-3-yl]-5-(2-morpholin-4-yl-ethoxy)-benzamide], the IC50 is 0.01 to 250 nM.

The values above are taken from patent publication US9062051B2, “Compounds and pharmaceutical compositions thereof for the treatment of proliferative disorders” (GALAPAGOS NV, priority 2014, dated 2015).
